Experimental data from patent US20250092065A1, “2-(INDAZOL-5-YL)-6-(PIPERIDIN-4-YL)-1,7-NAPHTHYRIDINE DERIVATIVES AND RELATED COMPOUNDS AS MODULATORS FOR SPLICING NUCLEIC ACIDS AND FOR THE TREATMENT OF PROLIFERATIVE DISEASES” (REMIX THERAPEUTICS INC., priority 2022, published 2025).
Like-named read-outs stand apart in the source and are kept apart here.

Tests used:
SMN2 mRNA = assay: RT-qPCR splicing assay, SMN2 mRNA; type: cell-based, human; conditions: Homo sapiens, canonical junction qPCR panel, Table 4; read-out: SMN2 IC50 (decrease in CJ mRNA levels)
How it was run: (§1)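 A673 or K562 cells treated 24 h at 37 °C with an 11-point 3-fold dilution series (top 10 uM, DMSO ≤0.25%). Lysates went directly to one-step RT-qPCR quantifying canonical (CJ) and alternative-exon (AJ) junctions, normalized to GAPDH, GUSB or PPIA. Values from ΔΔCt versus DMSO, RQ = 2^(−ΔΔCt), expressed as percentage response.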

HTT mRNA = assay: RT-qPCR splicing assay, HTT mRNA canonical (CJ) and alternative (AJ) junction; type: cell-based, human; conditions: Homo sapiens
How it was run: as §1

Target C = assay: RT-qPCR canonical junction panel assay, Target C mRNA; type: cell-based; conditions: Table 4, read-out: Target C IC50 (decrease in CJ mRNA levels)
Method: Compounds described herein were used to modulate RNA transcript abundance in cells. The expression of a target mRNA was measured by detecting the formation of an exon-exon junction in the canonical transcript (CJ). A compound mediated exon-inclusion event was detected by observing an increase in formation of a new junction with an alternative exon (AJ). Real-time qPCR assays were used to detect these splicing switches and interrogate the potency of various compounds towards different target genes. A high-throughput real time quantitative PCR (RT-qPCR) assay was developed to measure these two isoforms of the mRNA (CJ and AJ) for exemplary genes, such as HTT, SMN2, and MYB, together with a control housekeeping gene, GAPDH or GUSB or PPIA, used for normalization. Briefly, the A673 or K562 cell line was treated with various compounds described herein (e.g., compounds of Formula (I)). After treatment, the levels of the HTT, MYB, or SMN2 mRNA targets were determined from each sample of cell lysate by cDNA synthesis followed by qPCR.
The data analysis was performed by first determining the ΔCt vs the housekeeper gene. This ΔCt was then normalized against the DMSO control (ΔΔCt) and converted to RQ (relative quantification) using the 2^(−ΔΔCt) equation. The RQ were then converted to a percentage response by arbitrarily setting an assay window of 3.5 and 4.0 ΔCt for HTT-CJ and MYB-CJ respectively and an assay window of 9 and 3 ΔCt for HTT-AJ and MYB-AJ in 96 well format (50,000 K562 cells/well and 15,000 A673 cells per well) and an assay window of 3 and 4 ΔCt for HTT-CJ and MYB-CJ respectively and an assay window of 5 and 3 ΔCt for HTT-AJ and MYB-AJ respectively in 384 well format (8,000 K562 cells/well example). […] The percentage response was then fitted to the 4 parametric logistic equation to evaluate the concentration dependence of compound treatment. The increase in AJ mRNA is reported as AC50 (compound concentration having 50% response in AJ increase) while the decrease in CJ mRNA levels is reported as IC50 (compound concentration having […] in CJ decrease).
Additional studies were carried out for a larger panel of genes using the protocol provided above. The junction between flanking upstream and downstream exons was used to design canonical junction Qpcr assays. At least one of the forward primer, reverse primer or the CY5-labeled 5′ nuclease probe (with 3′ quencher such as ZEN/Iowa Black FQ) was designed to overlap with the exon junction to capture the CJ Mrna transcript. BLAST was used to confirm the specificity of the probeset and parameters suCH As melting temperature, GC content, amplicon size, and primer dimer formation are considered during their design. Data for the decrease in CJ Mrna levels for four exemplary genes (HTT, SMN2, MYB, and Target C) analyzed in this panel are reported as IC50 (compound concentration having […] in CJ decrease).

MYB mRNA = assay: RT-qPCR splicing assay, MYB mRNA canonical (CJ) and alternative (AJ) junction; type: cell-based, human; conditions: Homo sapiens
How it was run: as §1

K562 cells = assay: Cell Titer Glo 2.0 cell viability (toxicity) assay, K562; conditions: 500 cells/well, 72 hours
[1] = HTT alternative junction mRNA, RT-qPCR, read-out: HTT AJ (increase in AJ mRNA, AC50)
[2] = HTT canonical junction mRNA, RT-qPCR, read-out: HTT CJ (decrease in CJ mRNA levels, IC50)
[3] = canonical junction qPCR panel, Table 4, read-out: HTT IC50 (decrease in CJ mRNA levels)
[4] = MYB alternative junction mRNA, RT-qPCR, read-out: MYB AJ (increase in AJ mRNA, AC50)
[5] = MYB canonical junction mRNA, RT-qPCR, read-out: MYB CJ (decrease in CJ mRNA levels, IC50)
[6] = canonical junction qPCR panel, Table 4, read-out: MYB IC50 (decrease in CJ mRNA levels)
[7] = RT-qPCR, HTT alternative junction mRNA increase, read-out: HTT AJ (increase in alternative junction mRNA, AC50)
[8] = RT-qPCR, HTT canonical junction mRNA decrease, read-out: HTT CJ (decrease in canonical junction mRNA, IC50)
[9] = RT-qPCR, MYB alternative junction mRNA increase, read-out: MYB AJ (increase in alternative junction mRNA, AC50)
[10] = RT-qPCR, MYB canonical junction mRNA decrease, read-out: MYB CJ (decrease in canonical junction mRNA, IC50)

Row | SMILES | IC50 (SMN2 mRNA) [µM] | AC50 (HTT mRNA; [1]) [µM] | IC50 (HTT mRNA; [2]) [µM] | IC50 (HTT mRNA; [3]) [µM] | IC50 (Target C) [µM] | AC50 (MYB mRNA; [4]) [µM] | IC50 (MYB mRNA; [5]) [µM] | IC50 (MYB mRNA; [6]) [µM] | Effect of Exemplary Compounds on Cell Viability, K562 (K562 cells) | AC50 (HTT mRNA; [7]) [µM] | IC50 (HTT mRNA; [8]) [µM] | AC50 (MYB mRNA; [9]) [µM] | IC50 (MYB mRNA; [10]) [µM]
1 | Cc1nc2c(F)c(O)c(-c3ccc4nc(N5CC[C@@H](NC6(CF)CC6)C5)ccc4n3)cc2o1 (single isomer, unassigned) [Compound 372] | < 0.1 | < 0.1 | < 0.1 | < 0.1 | < 0.1 | < 0.1 | < 0.1 | < 0.1 | – | – | – | – | –
2 | C[C@H]1CN(c2cc(F)c3nc(-c4cc(F)c5nn(C)cc5c4)ccc3c2)CCN1 (single isomer, unassigned) [Compound 789] | < 0.1 | – | – | 0.1 to 1 | 0.1 to 1 | – | – | < 0.1 | B (B represents 100-1000 nM) | 0.1 to 1 | 0.1 to 1 | < 0.1 | < 0.1
3 | Cc1nc2c(F)c(O)c(-c3ccc4nc(N5CCC(NCC6CC6)C5)ccc4n3)cc2o1 (stereo not drawn) [Cmpd 294] | < 0.1 | < 0.1 | < 0.1 | < 0.1 | < 0.1 | < 0.1 | < 0.1 | < 0.1 | – | – | – | – | –
4 | Cc1nc2c(C)c(O)c(-c3ccc4nc(N5CC[C@@H](NC(C)C)C5)ncc4n3)cc2o1 [Cmpd 415] | < 0.1 | < 0.1 | < 0.1 | < 0.1 | < 0.1 | < 0.1 | < 0.1 | < 0.1 | – | – | – | – | –
5 | CN(c1ccc2nc(-c3cc4cn(C)nc4cc3O)ccc2n1)C1CC(C)(C)N(C)C(C)(C)C1 [Compound 130] | 0.1 to 1 | > 10 | > 10 | > 10 | > 10 | > 10 | > 10 | > 10 | – | – | – | – | –
6 | COc1cc2nc(C3CCNCC3)ccc2nc1-c1cc2c(C)nc(C)cn2n1 [Compound 343, 2-{4,6-dimethylpyrazolo[1,5-a]pyrazin-2-yl}-3-methoxy-6-(piperidin-4-yl)-1,5-naphthyridine] | < 0.1 | 1 to 10 | 1 to 10 | 1 to 10 | > 10 | 1 to 10 | 1 to 10 | 1 to 10 | – | – | – | – | –
7 | Cc1cn2nc(-c3ncc4cc(N5CCNC6(CC6)C5)ccc4n3)cc(C)c2n1 [Compound 795, 2-(2,8-dimethylimidazo[1,2-b]pyridazin-6-yl)-6-(4,7-diazaspiro[2.5]octan-7-yl)quinazoline] | – | – | – | > 10 | > 10 | – | – | 1 to 10 | C (C represents 1000-9999 nM) | > 10 | > 10 | 1 to 10 | 1 to 10
8 | Cn1cc2cc(-c3ncc4cc(N5CCC(N6CCC6)CC5)ccc4n3)c(O)cc2n1 [Compound 801, 5-{6-[4-(azetidin-1-yl)piperidin-1-yl]quinazolin-2-yl}-2-methylindazol-6-ol] | – | – | – | 1 to 10 | 1 to 10 | – | – | 0.1 to 1 | B (B represents 100-1000 nM) | 1 to 10 | 1 to 10 | 1 to 10 | 0.1 to 1
9 | C[C@H]1CN(c2ccc3nc(-c4cc(F)c5nn(C)cc5c4)ncc3c2)C[C@H](C)N1 [Compound 802, 6-[(3S,5S)-3,5-dimethylpiperazin-1-yl]-2-(7-fluoro-2-methylindazol-5-yl)quinazoline] | – | – | – | 0.1 to 1 | 0.1 to 1 | – | – | 0.1 to 1 | B (B represents 100-1000 nM) | 0.1 to 1 | 0.1 to 1 | 0.1 to 1 | 0.1 to 1
10 | Cc1cn2nc(-c3ccc4cc(N5CCNC6(CC6)C5)cc(F)c4n3)cc(C)c2n1 [Compound 804, 6-{4,7-diazaspiro[2.5]octan-7-yl}-2-{2,8-dimethylimidazo[1,2-b]pyridazin-6-yl}-8-fluoroquinoline] | – | – | – | 0.1 to 1 | 0.1 to 1 | – | – | 0.1 to 1 | B (B represents 100-1000 nM) | 0.1 to 1 | 0.1 to 1 | 0.1 to 1 | 0.1 to 1
